Reference: article PMC5218480 (PLoS ONE, 2017)

Tested on: MV-4-11 cells
Assay: Gene expression microarray analysis (Affymetrix PrimeView) and GSEA
Format: cell-based, human
Design: RFU PODN (11730768_x_at) / Fold change /veh PODN (11730768_x_at) / RFU LINC00158 (11744669_a_at) / Fold change /veh LINC00158 (11744669_a_at) / RFU DUSP10 (11751237_a_at) / Fold change /veh DUSP10 (11751237_a_at) / RFU ID3 (11757404_x_at) / Fold change /veh ID3 (11757404_x_at) / RFU PLEKHG5 (11737974_s_at) / Fold change /veh PLEKHG5 (11737974_s_at) / RFU LRRC4B (11730491_at) / Fold change /veh LRRC4B (11730491_at) / RFU GIMAP4 (11747438_a_at) / Fold change /veh GIMAP4 (11747438_a_at) / RFU KRT8 (11758183_x_at) / Fold change /veh KRT8 (11758183_x_at) / RFU CNN1 (11734310_a_at) / Fold change /veh CNN1 (11734310_a_at) / RFU VPS37D (11726825_at) / Fold change /veh VPS37D (11726825_at) / RFU C10orf10 (11716522_x_at) / Fold change /veh C10orf10 (11716522_x_at) / RFU KIR2DL2 /// KIR2DL4 /// KIR2DL5A /// KIR2DL5B /// KIR2DS1 /// KIR2DS2 /// KIR2DS3 /// KIR2DS4 /// KIR3DL3 /// KIR3DL3 /// KIR3DS1 (11738374_at) / Fold change /veh KIR2DL2 /// KIR2DL4 /// KIR2DL5A /// KIR2DL5B /// KIR2DS1 /// KIR2DS2 /// KIR2DS3 /// KIR2DS4 /// KIR3DL3 /// KIR3DL3 /// KIR3DS1 (11738374_at) / RFU C1QL1 (11718748_at) / Fold change /veh C1QL1 (11718748_at) / RFU TMPRSS4 (11747572_a_at) / Fold change /veh TMPRSS4 (11747572_a_at) / RFU HAMP (11756126_x_at) / Fold change /veh HAMP (11756126_x_at) / RFU RNFT2 (11725882_a_at) / Fold change /veh RNFT2 (11725882_a_at) / RFU NR4A2 (11747474_a_at) / Fold change /veh NR4A2 (11747474_a_at) / RFU ABCC12 (11746883_a_at) / Fold change /veh ABCC12 (11746883_a_at) / RFU TMEM136 (11760407_x_at) / Fold change /veh TMEM136 (11760407_x_at) / RFU CLDN22 /// WWC2 (11732394_at) / Fold change /veh CLDN22 /// WWC2 (11732394_at) / RFU HLA-DPB1 (11760878_x_at) / Fold change /veh HLA-DPB1 (11760878_x_at) / RFU SPINT1 (11716480_a_at) / Fold change /veh SPINT1 (11716480_a_at) / RFU GAP43 (11754022_s_at) / Fold change /veh GAP43 (11754022_s_at) / RFU A4GNT (11735810_at) / Fold change /veh A4GNT (11735810_at) / RFU PRB3 (11715151_x_at) / Fold change /veh PRB3 (11715151_x_at) / RFU TUBB4B (11761932_at) / Fold change /veh TUBB4B (11761932_at) / RFU CAPN14 (11732068_a_at) / Fold change /veh CAPN14 (11732068_a_at) / RFU TMCC2 (11721928_a_at) / Fold change /veh TMCC2 (11721928_a_at) / RFU IRGQ (11745062_a_at) / Fold change /veh IRGQ (11745062_a_at) / RFU FAM174B (11720279_a_at) / Fold change /veh FAM174B (11720279_a_at) / RFU TMPRSS4 (11748680_a_at) / Fold change /veh TMPRSS4 (11748680_a_at) / RFU FAM212B (11763350_a_at) / Fold change /veh FAM212B (11763350_a_at) / RFU PLEKHG5 (11743358_a_at) / Fold change /veh PLEKHG5 (11743358_a_at) / RFU ZSCAN30 (11745921_a_at) / Fold change /veh ZSCAN30 (11745921_a_at) / RFU CMKLR1 (11741424_a_at) / Fold change /veh CMKLR1 (11741424_a_at) / RFU LOC101060620 /// MAPK8IP1 (11723275_at) / Fold change /veh LOC101060620 /// MAPK8IP1 (11723275_at) / RFU SPTSSB (11747773_x_at) / Fold change /veh SPTSSB (11747773_x_at) / RFU PRSS12 (11739890_at) / Fold change /veh PRSS12 (11739890_at) / RFU BIN1 (11741810_x_at) / Fold change /veh BIN1 (11741810_x_at) / RFU WNT11 (11732464_a_at) / Fold change /veh WNT11 (11732464_a_at) / RFU C10orf10 (11716521_a_at) / Fold change /veh C10orf10 (11716521_a_at) / RFU C5orf56 (11738089_at) / Fold change /veh C5orf56 (11738089_at) / RFU CYB561 (11721691_x_at) / Fold change /veh CYB561 (11721691_x_at) / RFU ANKRD19P (11752326_a_at) / Fold change /veh ANKRD19P (11752326_a_at) / RFU OR2T12 /// OR2T33 /// OR2T8 (11738714_s_at) / Fold change /veh OR2T12 /// OR2T33 /// OR2T8 (11738714_s_at) / RFU VCAN (11748164_a_at) / Fold change /veh VCAN (11748164_a_at) / RFU JSRP1 (11732532_at) / Fold change /veh JSRP1 (11732532_at) / RFU KRTAP10-11 (11738290_x_at) / Fold change /veh KRTAP10-11 (11738290_x_at) / RFU MYO3A (11730013_a_at) / Fold change /veh MYO3A (11730013_a_at) / RFU EBF3 (11725865_a_at) / Fold change /veh EBF3 (11725865_a_at) / RFU CAMK2N1 (11719241_x_at) / Fold change /veh CAMK2N1 (11719241_x_at) / RFU C5orf56 (11738088_a_at) / Fold change /veh C5orf56 (11738088_a_at) / RFU OLFML3 (11715873_a_at) / Fold change /veh OLFML3 (11715873_a_at) / RFU LOC100653217 /// NTM (11731650_a_at) / Fold change /veh LOC100653217 /// NTM (11731650_a_at) / RFU MAPK11 (11762145_a_at) / Fold change /veh MAPK11 (11762145_a_at) / RFU FIZ1 (11724087_x_at) / Fold change /veh FIZ1 (11724087_x_at) / RFU OASL (11726364_x_at) / Fold change /veh OASL (11726364_x_at) / RFU SOX15 (11748057_x_at) / Fold change /veh SOX15 (11748057_x_at) / RFU CD79A (11719716_a_at) / Fold change /veh CD79A (11719716_a_at) / RFU HIST1H1D (11736915_at) / Fold change /veh HIST1H1D (11736915_at) / RFU CASKIN2 (11723855_a_at) / Fold change /veh CASKIN2 (11723855_a_at) / RFU LOC730098 (11760151_x_at) / Fold change /veh LOC730098 (11760151_x_at) / RFU OR4N2 (11742367_at) / Fold change /veh OR4N2 (11742367_at) / RFU PRRT2 (11749266_a_at) / Fold change /veh PRRT2 (11749266_a_at) / RFU SNX32 (11753110_a_at) / Fold change /veh SNX32 (11753110_a_at) / RFU CDHR5 (11726645_a_at) / Fold change /veh CDHR5 (11726645_a_at) / RFU RCAN1 (11760418_a_at) / Fold change /veh RCAN1 (11760418_a_at) / RFU FAM167A (11723789_a_at) / Fold change /veh FAM167A (11723789_a_at) / RFU FAM26E (11764081_at) / Fold change /veh FAM26E (11764081_at) / RFU ISYNA1 (11749810_s_at) / Fold change /veh ISYNA1 (11749810_s_at) / RFU ACY1 (11761880_at) / Fold change /veh ACY1 (11761880_at) / RFU 11764098_at / Fold change /veh 11764098_at / RFU SAMD14 (11745864_x_at) / Fold change /veh SAMD14 (11745864_x_at) / RFU NPB (11741838_a_at) / Fold change /veh NPB (11741838_a_at) / RFU TMPRSS6 (11731388_a_at) / Fold change /veh TMPRSS6 (11731388_a_at) / RFU KRTAP10-2 (11738614_at) / Fold change /veh KRTAP10-2 (11738614_at) / RFU ARHGAP8 /// PRR5-ARHGAP8 (11727945_x_at) / Fold change /veh ARHGAP8 /// PRR5-ARHGAP8 (11727945_x_at) / RFU KRTAP5-7 /// NADSYN1 (11734609_at) / Fold change /veh KRTAP5-7 /// NADSYN1 (11734609_at) / RFU RASL12 (11751679_a_at) / Fold change /veh RASL12 (11751679_a_at) / RFU CDKN2B (11736163_a_at) / Fold change /veh CDKN2B (11736163_a_at) / RFU PRF1 (11729649_at) / Fold change /veh PRF1 (11729649_at) / RFU, ZNF638 /// ZNF638-IT1 / Fold change vs veh, ZNF638 /// ZNF638-IT1 / RFU, PANK3 / Fold change vs veh, PANK3 / RFU, SH3YL1 / Fold change vs veh, SH3YL1 / RFU, ZEB2 / Fold change vs veh, ZEB2 / RFU, NRIP1 / Fold change vs veh, NRIP1 / RFU, PTTG1IP / Fold change vs veh, PTTG1IP / RFU, CAPN2 / Fold change vs veh, CAPN2 / RFU, MED14 / Fold change vs veh, MED14 / RFU, SNORA58 / Fold change vs veh, SNORA58 / RFU, C1orf63 / Fold change vs veh, C1orf63 / RFU, LRRFIP1 / Fold change vs veh, LRRFIP1 / RFU, NDUFAF7 / Fold change vs veh, NDUFAF7 / RFU, SLC12A2 / Fold change vs veh, SLC12A2 / RFU, IBTK / Fold change vs veh, IBTK / RFU, ESF1 / Fold change vs veh, ESF1 / Fold change vs veh, TMEM50B / RFU, TAOK1 / Fold change vs veh, TAOK1 / RFU, ACBD3 / Fold change vs veh, ACBD3 / RFU, TMA16 / Fold change vs veh, TMA16 / RFU, RWDD3 / Fold change vs veh, RWDD3 / RFU, BCAT1 / Fold change vs veh, BCAT1 / RFU, EDEM3 / Fold change vs veh, EDEM3 / RFU, TMEM33 / Fold change vs veh, TMEM33 / RFU, WDR75 / Fold change vs veh, WDR75 / RFU, AHCTF1 / Fold change vs veh, AHCTF1 / RFU, TFRC / Fold change vs veh, TFRC / RFU, ZDHHC17 / Fold change vs veh, ZDHHC17 / RFU, NOM1 / Fold change vs veh, NOM1 / RFU, ARL8B / Fold change vs veh, ARL8B / RFU, ZBTB11 / Fold change vs veh, ZBTB11 / RFU, TAMM41 / Fold change vs veh, TAMM41 / RFU, KIAA1704 /// LOC100996395 / Fold change vs veh, KIAA1704 /// LOC100996395 / RFU, ING1 / Fold change vs veh, ING1 / RFU, TRMT61B / Fold change vs veh, TRMT61B / RFU, FUBP3 / Fold change vs veh, FUBP3 / RFU, TP53 / Fold change vs veh, TP53 / RFU, TNKS2 / Fold change vs veh, TNKS2 / RFU, ZFP14 / Fold change vs veh, ZFP14 / RFU, ACTR2 / Fold change vs veh, ACTR2 / RFU, PPP3R1 / Fold change vs veh, PPP3R1 / RFU, PIK3R1 / Fold change vs veh, PIK3R1 / RFU, HNRNPA1 / Fold change vs veh, HNRNPA1 / RFU, RNF170 / Fold change vs veh, RNF170 / RFU, ZNF28 / Fold change vs veh, ZNF28 / RFU, RNGTT / Fold change vs veh, RNGTT / RFU, OGT / Fold change vs veh, OGT / RFU, BRD1 / Fold change vs veh, BRD1 / RFU, MARS / Fold change vs veh, MARS / RFU, ZNF655 / Fold change vs veh, ZNF655 / RFU, FAHD1 / Fold change vs veh, FAHD1 / RFU, BDP1 / Fold change vs veh, BDP1 / RFU, LRRCC1 / Fold change vs veh, LRRCC1 / RFU, ARID1A / Fold change vs veh, ARID1A / RFU, ZNF146 / Fold change vs veh, ZNF146 / RFU, ZNF330 / Fold change vs veh, ZNF330 / RFU, GPN3 / Fold change vs veh, GPN3 / RFU, C9orf123 / Fold change vs veh, C9orf123 / RFU, N4BP2L2 / Fold change vs veh, N4BP2L2 / RFU, ARFIP1 / Fold change vs veh, ARFIP1 / RFU, FAM179B / Fold change vs veh, FAM179B / RFU, BCL10 / Fold change vs veh, BCL10 / RFU, UHRF1BP1L / Fold change vs veh, UHRF1BP1L / RFU, BET1 / Fold change vs veh, BET1 / RFU, CNOT2 / Fold change vs veh, CNOT2 / RFU, ZNF268 / Fold change vs veh, ZNF268 / Fold change vs veh, ZNF507 / RFU, DGCR2 / Fold change vs veh, DGCR2 / RFU, WDSUB1 / Fold change vs veh, WDSUB1 / Fold change vs veh, HSP90B1 /// MIR3652 / RFU, ADSS / Fold change vs veh, ADSS / RFU, GK / Fold change vs veh, GK / RFU, ZNF148 / Fold change vs veh, ZNF148 / RFU, TAF9 / Fold change vs veh, TAF9 / RFU, SLC1A5 / Fold change vs veh, SLC1A5 / RFU, SLMO2 / Fold change vs veh, SLMO2 / RFU, ABCC4 / Fold change vs veh, ABCC4 / RFU, LOC101060439 /// RAP1B / Fold change vs veh, LOC101060439 /// RAP1B / RFU, RFX7 / Fold change vs veh, RFX7 / RFU, GTPBP10 / Fold change vs veh, GTPBP10 / RFU, CNEP1R1 / Fold change vs veh, CNEP1R1 / RFU, BIVM-ERCC5 /// ERCC5 / Fold change vs veh, BIVM-ERCC5 /// ERCC5 / RFU, ILF3 / Fold change vs veh, ILF3 / RFU 11762660_at / Fold change /veh 11762660_at / RFU VCAN (11757783_s_at) / Fold change /veh VCAN (11757783_s_at) / RFU DDX43 (11728927_at) / Fold change /veh DDX43 (11728927_at) / RFU KRT8 (11758188_x_at) / Fold change /veh KRT8 (11758188_x_at) / RFU NKD1 (11759106_at) / Fold change /veh NKD1 (11759106_at) / RFU SRD5A1 (11742802_a_at) / Fold change /veh SRD5A1 (11742802_a_at) / RFU TPSAB1 /// TPSB2 (11721975_s_at) / Fold change /veh TPSAB1 /// TPSB2 (11721975_s_at) / RFU GSTM3 (11746129_a_at) / Fold change /veh GSTM3 (11746129_a_at) / RFU IL23R (11737362_x_at) / Fold change /veh IL23R (11737362_x_at) / RFU TMEM51 (11727254_a_at) / Fold change /veh TMEM51 (11727254_a_at) / RFU PIWIL2 (11732686_x_at) / Fold change /veh PIWIL2 (11732686_x_at) / RFU ORM1 (11744905_x_at) / Fold change /veh ORM1 (11744905_x_at) / RFU CCDC152 (11743942_at) / Fold change /veh CCDC152 (11743942_at) / RFU ECM1 (11717891_a_at) / Fold change /veh ECM1 (11717891_a_at) / RFU IL23R (11748794_a_at) / Fold change /veh IL23R (11748794_a_at) / RFU TNFAIP8L3 (11732012_x_at) / Fold change /veh TNFAIP8L3 (11732012_x_at) / RFU MBOAT4 (11741988_at) / Fold change /veh MBOAT4 (11741988_at) / RFU 11764193_at / Fold change /veh 11764193_at / RFU TMEM53 (11763286_at) / Fold change /veh TMEM53 (11763286_at) / RFU MAGEB2 (11727129_at) / Fold change /veh MAGEB2 (11727129_at) / RFU TMEM200A (11744735_a_at) / Fold change /veh TMEM200A (11744735_a_at) / RFU CCDC152 (11751479_a_at) / Fold change /veh CCDC152 (11751479_a_at) / RFU FAM211A (11726209_a_at) / Fold change /veh FAM211A (11726209_a_at) / RFU RGS16 (11746705_a_at) / Fold change /veh RGS16 (11746705_a_at) / RFU VCAN (11755009_s_at) / Fold change /veh VCAN (11755009_s_at) / RFU RHOB (11743442_s_at) / Fold change /veh RHOB (11743442_s_at) / RFU RGS16 (11720943_a_at) / Fold change /veh RGS16 (11720943_a_at) / RFU RGS16 (11720944_at) / Fold change /veh RGS16 (11720944_at) / RFU, VPS4B / Fold change vs veh, VPS4B / RFU, CREB1 / Fold change vs veh, CREB1 / RFU, DNAJC13 / Fold change vs veh, DNAJC13 / RFU, GNAQ / Fold change vs veh, GNAQ / RFU, CDK5R1 / Fold change vs veh, CDK5R1 / RFU, ZRANB3 / Fold change vs veh, ZRANB3 / RFU, CUL4A / Fold change vs veh, CUL4A / RFU, CCNY / Fold change vs veh, CCNY / RFU, UFL1 / Fold change vs veh, UFL1 / RFU, COG3 / Fold change vs veh, COG3 / RFU, DIAPH2 / Fold change vs veh, DIAPH2 / RFU, SKA2 / Fold change vs veh, SKA2 / RFU, AFF3 / Fold change vs veh, AFF3 / RFU, LMF1 / Fold change vs veh, LMF1 / RFU, IPO11 / Fold change vs veh, IPO11 / RFU, DFFB / Fold change vs veh, DFFB / RFU, FOXP1 / Fold change vs veh, FOXP1 / RFU, CARD8 / Fold change vs veh, CARD8 / RFU, STRN3 / Fold change vs veh, STRN3 / RFU, ADK / Fold change vs veh, ADK / RFU, RASSF2 / Fold change vs veh, RASSF2 / RFU, WIPF1 / Fold change vs veh, WIPF1 / RFU, LARP1B / Fold change vs veh, LARP1B / RFU, RASA1 / Fold change vs veh, RASA1 / RFU, RB1 / Fold change vs veh, RB1 / RFU, PPFIA1 / Fold change vs veh, PPFIA1 / RFU, MAT2A / Fold change vs veh, MAT2A / RFU, CCT5 / Fold change vs veh, CCT5 / RFU, WDR92 / Fold change vs veh, WDR92 / RFU, CUX1 / Fold change vs veh, CUX1 / RFU, TTC7A / Fold change vs veh, TTC7A / RFU, TMEM135 / Fold change vs veh, TMEM135 / RFU, DEPTOR / Fold change vs veh, DEPTOR / RFU, CPM / Fold change vs veh, CPM / RFU, DNAJB6 / Fold change vs veh, DNAJB6 / RFU, CACNA2D3 / Fold change vs veh, CACNA2D3 / RFU, DTX4 / Fold change vs veh, DTX4 / RFU, TFCP2 / Fold change vs veh, TFCP2 / RFU, GMCL1 /// GMCL1P1 / Fold change vs veh, GMCL1 /// GMCL1P1 / RFU, AEBP2 / Fold change vs veh, AEBP2 / RFU, SNHG1 /// SNORD22 /// SNORD25 /// SNORD26 /// SNORD27 /// SNORD28 /// SNORD29 /// SNORD31 / Fold change vs veh, SNHG1 /// SNORD22 /// SNORD25 /// SNORD26 /// SNORD27 /// SNORD28 /// SNORD29 /// SNORD31 / Fold change (Aza/veh), C12orf56 (ProbeSet 11735607_a_at) / Fold change (ACY-1035/veh), C12orf56 (ProbeSet 11735607_a_at) / Fold change (Aza/veh), FGFR1OP (ProbeSet 11751329_s_at) / Fold change (ACY-1035/veh), FGFR1OP (ProbeSet 11751329_s_at) / Fold change (Aza/veh), VPS36 (ProbeSet 11739960_a_at) / Fold change (ACY-1035/veh), VPS36 (ProbeSet 11739960_a_at) / RFU SYPL1 (11715823_x_at) / Fold change /veh SYPL1 (11715823_x_at) / RFU IGFBP7 (11715501_s_at) / Fold change /veh IGFBP7 (11715501_s_at) / RFU REEP3 (11722064_at) / Fold change /veh REEP3 (11722064_at) / RFU IGLL1 (11728026_x_at) / Fold change /veh IGLL1 (11728026_x_at): dose or concentration left out as unconfirmed
Settings: ProbeSet 11732165_x_at; LIST D

Nc1ncn([C@@H]2O[C@H](CO)[C@@H](O)[C@H]2O)c(=O)n1 [azacitidine]
RFU, LMF1: 50.31 RFU
